The series concerns CCRIS mutagenicity, Ames/micronucleus/aberration tests. The experiment in a line: CCRIS mutagenicity studies.
Where [1] appears, read: Test System: AMES SALMONELLA TYPHIMURIUM, Strain/Indicator: TA97, Metabolic Activation: NONE, Method: PREINCUBATION
[2] abbreviates: Test System: AMES SALMONELLA TYPHIMURIUM, Strain/Indicator: TA98, Metabolic Activation: HAMSTER, LIVER, S-9, AROCLOR 1254 (10%), Method: PREINCUBATION
The mark [3] stands for this setting: Test System: AMES SALMONELLA TYPHIMURIUM, Strain/Indicator: TA98, Metabolic Activation: HAMSTER, LIVER, S-9, AROCLOR 1254 (30%), Method: PREINCUBATION
The mark [4] stands for this setting: Test System: AMES SALMONELLA TYPHIMURIUM, Strain/Indicator: TA98, Metabolic Activation: NONE, Method: PREINCUBATION
Where [5] appears, read: Test System: AMES SALMONELLA TYPHIMURIUM, Strain/Indicator: TA98, Metabolic Activation: RAT, LIVER, S-9, AROCLOR 1254 (10%), Method: PREINCUBATION
[6] abbreviates: Test System: AMES SALMONELLA TYPHIMURIUM, Strain/Indicator: TA98, Metabolic Activation: RAT, LIVER, S-9, AROCLOR 1254 (30%), Method: PREINCUBATION
Setting [7] is: Test System: AMES SALMONELLA TYPHIMURIUM, Strain/Indicator: TA100, Metabolic Activation: HAMSTER, LIVER, S-9, AROCLOR 1254 (10%), Method: PREINCUBATION
Setting [8] is: Test System: AMES SALMONELLA TYPHIMURIUM, Strain/Indicator: TA100, Metabolic Activation: HAMSTER, LIVER, S-9, AROCLOR 1254 (30%), Method: PREINCUBATION
[9] abbreviates: Test System: AMES SALMONELLA TYPHIMURIUM, Strain/Indicator: TA100, Metabolic Activation: NONE, Method: PREINCUBATION
Where [10] appears, read: Test System: AMES SALMONELLA TYPHIMURIUM, Strain/Indicator: TA1535, Metabolic Activation: NONE, Method: PREINCUBATION

SMILES strings stand for the structures. Calls of active or inactive are those of the source. The rule behind the calls is not given here.

For `O=C(O)C1=NN(c2ccc(S(=O)(=O)O)cc2)C(=O)C1N=Nc1ccc(S(=O)(=O)O)cc1.[Al]` (centres undefined), the mutagenic call is “inactive; negative” (Test System: AMES SALMONELLA TYPHIMURIUM, Strain/Indicator: TA97, Metabolic Activation: HAMSTER, LIVER, S-9, AROCLOR 1254 (10%), Method: PREINCUBATION); “inactive; negative” (Test System: AMES SALMONELLA TYPHIMURIUM, Strain/Indicator: TA97, Metabolic Activation: HAMSTER, LIVER, S-9, AROCLOR 1254 (30%), Method: PREINCUBATION); “inactive; negative” under setting [1]; “inactive; negative” (Test System: AMES SALMONELLA TYPHIMURIUM, Strain/Indicator: TA97, Metabolic Activation: RAT, LIVER, S-9, AROCLOR 1254 (10%), Method: PREINCUBATION); “inactive; negative” (Test System: AMES SALMONELLA TYPHIMURIUM, Strain/Indicator: TA97, Metabolic Activation: RAT, LIVER, S-9, AROCLOR 1254 (30%), Method: PREINCUBATION); “inactive; negative” under setting [2]. Further, the mutagenic call reads like this: under setting [3], “inactive; negative”; under setting [4], “inactive; negative”; under setting [5], “inactive; negative”; under setting [6], “inactive; negative”; under setting [7], “inactive; negative”; under setting [8], “inactive; negative”. In addition, the mutagenic call is, setting by setting: under setting [9], “inactive; negative”; (Test System: AMES SALMONELLA TYPHIMURIUM, Strain/Indicator: TA100, Metabolic Activation: RAT, LIVER, S-9, AROCLOR 1254 (10%), Method: PREINCUBATION) “inactive; negative”; (Test System: AMES SALMONELLA TYPHIMURIUM, Strain/Indicator: TA100, Metabolic Activation: RAT, LIVER, S-9, AROCLOR 1254 (30%), Method: PREINCUBATION) “inactive; negative”; (Test System: AMES SALMONELLA TYPHIMURIUM, Strain/Indicator: TA1535, Metabolic Activation: HAMSTER, LIVER, S-9, AROCLOR 1254 (10%), Method: PREINCUBATION) “inactive; negative”; (Test System: AMES SALMONELLA TYPHIMURIUM, Strain/Indicator: TA1535, Metabolic Activation: HAMSTER, LIVER, S-9, AROCLOR 1254 (30%), Method: PREINCUBATION) “inactive; negative”; under setting [10], “inactive; negative”. In addition, the mutagenic call runs as follows: (Test System: AMES SALMONELLA TYPHIMURIUM, Strain/Indicator: TA1535, Metabolic Activation: RAT, LIVER, S-9, AROCLOR 1254 (10%), Method: PREINCUBATION) “inactive; negative”; (Test System: AMES SALMONELLA TYPHIMURIUM, Strain/Indicator: TA1535, Metabolic Activation: RAT, LIVER, S-9, AROCLOR 1254 (30%), Method: PREINCUBATION) “inactive; negative”; (Test System: AMES SALMONELLA TYPHIMURIUM, Strain/Indicator: TA1537, Metabolic Activation: HAMSTER, LIVER, S-9, AROCLOR 1254 (30%), Method: PREINCUBATION) “inactive; negative”; (Test System: AMES SALMONELLA TYPHIMURIUM, Strain/Indicator: TA1537, Metabolic Activation: NONE, Method: PREINCUBATION) “inactive; negative”; (Test System: AMES SALMONELLA TYPHIMURIUM, Strain/Indicator: TA1537, Metabolic Activation: RAT, LIVER, S-9, AROCLOR 1254 (30%), Method: PREINCUBATION) “inactive; negative”.

With `Nc1ncnc2nc[nH]c12`, the mutagenic call by setting is: (Test System: AMES SALMONELLA TYPHIMURIUM, Strain/Indicator: TA97, Metabolic Activation: NONE, Method: STANDARD PLATE) “inactive; negative”; (Test System: AMES SALMONELLA TYPHIMURIUM, Strain/Indicator: TA97, Metabolic Activation: RAT, LIVER, S-9, AROCLOR 1254, Method: STANDARD PLATE) “inactive; negative”; (Test System: AMES SALMONELLA TYPHIMURIUM, Strain/Indicator: TA98, Metabolic Activation: NONE, Method: STANDARD PLATE) “inactive; negative”; (Test System: AMES SALMONELLA TYPHIMURIUM, Strain/Indicator: TA98, Metabolic Activation: RAT, LIVER, S-9, AROCLOR 1254, Method: STANDARD PLATE) “active; positive”; (Test System: AMES SALMONELLA TYPHIMURIUM, Strain/Indicator: TA100, Metabolic Activation: NONE, Method: STANDARD PLATE) “inactive; negative”; (Test System: AMES SALMONELLA TYPHIMURIUM, Strain/Indicator: TA100, Metabolic Activation: RAT, LIVER, S-9, AROCLOR 1254, Method: STANDARD PLATE) “inactive; negative”.

Regarding `NO`, the mutagenic call reads like this: (Test System: AMES SALMONELLA TYPHIMURIUM, Strain/Indicator: TA97, Metabolic Activation: HAMSTER, LIVER, S-9, AROCLOR 1254 (10 OR 30%), Method: PREINCUBATION) “inactive; negative”; under setting [1], “inactive; negative”; (Test System: AMES SALMONELLA TYPHIMURIUM, Strain/Indicator: TA97, Metabolic Activation: RAT, LIVER, S-9, AROCLOR 1254 (10 OR 30%), Method: PREINCUBATION) “inactive; negative”; under setting [2], “inactive; negative”; under setting [3], “inactive; negative”; under setting [4], “inactive; negative”. Moreover, the mutagenic call reads like this: under setting [5], “inactive; negative”; under setting [6], “inactive; negative”; under setting [7], “inactive; negative”; under setting [8], “inactive; negative”; under setting [9], “inactive; negative”; (Test System: AMES SALMONELLA TYPHIMURIUM, Strain/Indicator: TA100, Metabolic Activation: RAT, LIVER, S-9, AROCLOR 1254 (10 OR 30%), Method: PREINCUBATION) “inactive; negative”. Further, the mutagenic call was “inactive; negative” (Test System: AMES SALMONELLA TYPHIMURIUM, Strain/Indicator: TA102, Metabolic Activation: RAT, LIVER, S-9, AROCLOR 1254, Method: STANDARD PLATE); “inactive; negative” (Test System: AMES SALMONELLA TYPHIMURIUM, Strain/Indicator: TA1535, Metabolic Activation: HAMSTER, LIVER, S-9, AROCLOR 1254 (10 OR 30%), Method: PREINCUBATION); “inactive; negative” under setting [10]; “inactive; negative” (Test System: AMES SALMONELLA TYPHIMURIUM, Strain/Indicator: TA1535, Metabolic Activation: RAT, LIVER, S-9, AROCLOR 1254 (10 OR 30%), Method: PREINCUBATION); “active; positive” (Test System: MOUSE LYMPHOMA, Strain/Indicator: L5178Y (TK+/TK-), Metabolic Activation: NONE, Method: SUSPENSION/PLATE); “active; positive” (Test System: MOUSE LYMPHOMA, Strain/Indicator: L5178Y (TK+/TK-), Metabolic Activation: RAT, LIVER, S-9, AROCLOR 1254, Method: SUSPENSION/PLATE).

With `CC(=O)Nc1ccc(Cc2ccc(N)c(Cl)c2)cc1Cl`, the mutagenic call reads like this: under setting [9], “inactive; negative”; (Test System: AMES SALMONELLA TYPHIMURIUM, Strain/Indicator: TA100, Metabolic Activation: RAT, LIVER, S-9, AROCLOR 1254 (50, 100 OR 200 µL), Method: PREINCUBATION) “active; positive”.

These data come from PubChem BioAssay AID1259407 (Chemical Carcinogenesis Research Information System (CCRIS), 2018).
